Reference: PubChem BioAssay AID328 (DTP/NCI, 2004)
Values joined by “and” are separate entries in the source; they are usually repeats but may differ in a detail not shown here. Identical values can stand only once. Toxic doses and inconclusive results are not listed.

Tested on: BDF1 mice, P388 leukemia ip, median survival T/C
Assay: NCI In Vivo Anticancer Drug Screen. Data for tumor model P388 Leukemia (intraperitoneal) in B6D2F1 (BDF1) mice
Settings: endpoint: median survival time, higher = longer survival
Method in brief: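 Vehicle-dosed animals serve as the reference; survival of compound-dosed, tumour-implanted mice is divided by it.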

[1] = dose: 200.0 mg/kg/injection, schedule: Q04DX003 (ip), vehicle: Klucel (hydroxypropylcellulose) (HPC)
[2] = dose: 50.0 mg/kg/injection, schedule: Q01DX009 (ip), vehicle: saline
[3] = dose: 50.0 mg/kg/injection, schedule: Q04DX003 (ip), vehicle: saline
[4] = dose: 100.0 mg/kg/injection, schedule: Q01DX009 (ip), vehicle: saline
[5] = dose: 100.0 mg/kg/injection, schedule: Q04DX003 (ip), vehicle: saline
[6] = dose: 25.0 mg/kg/injection, schedule: Q01DX009 (ip), vehicle: saline with Tween-80
[7] = dose: 50.0 mg/kg/injection, schedule: Q01DX009 (ip), vehicle: saline with Tween-80
[8] = dose: 100.0 mg/kg/injection, schedule: Q01DX009 (ip), vehicle: saline with Tween-80
[9] = dose: 400.0 mg/kg/injection, schedule: Q04DX003 (ip), vehicle: saline
[10] = dose: 600.0 mg/kg/injection, schedule: Q04DX003 (ip), vehicle: saline
[11] = dose: 200.0 mg/kg/injection, schedule: Q04DX003 (ip), vehicle: saline with Tween-80
[12] = dose: 400.0 mg/kg/injection, schedule: Q04DX003 (ip), vehicle: saline with Tween-80
[13] = dose: 200.0 mg/kg/injection, schedule: Q01DX009 (ip), vehicle: saline with Tween-80
[14] = dose: 100.0 mg/kg/injection, schedule: Q04DX003 (ip), vehicle: saline with Tween-80
[15] = dose: 50.0 mg/kg/injection, schedule: Q04DX003 (ip), vehicle: saline with Tween-80
[16] = dose: 400.0 mg/kg/injection, schedule: Q01DX009 (ip), vehicle: saline with Tween-80
[17] = dose: 100.0 mg/kg/injection, schedule: Q04DX003 (ip), vehicle: Klucel (hydroxypropylcellulose) (HPC)
[18] = dose: 400.0 mg/kg/injection, schedule: Q04DX003 (ip), vehicle: Klucel (hydroxypropylcellulose) (HPC)
[19] = dose: 25.0 mg/kg/injection, schedule: Q04DX003 (ip), vehicle: saline with Tween-80

SMILES: NC(=O)OCCI
- T/C (dose: 50.0 mg/kg/injection, schedule: Q04DX003 (ip), vehicle: other): 100 % of control
- T/C (dose: 100.0 mg/kg/injection, schedule: Q04DX003 (ip), vehicle: other): 120 % of control
- T/C (dose: 132.0 mg/kg/injection, schedule: Q04DX003 (ip), vehicle: Klucel (hydroxypropylcellulose) (HPC)): 150 % of control and 177 % of control
- T/C [1]: 90 % of control
- T/C (dose: 200.0 mg/kg/injection, schedule: Q04DX003 (ip), vehicle: other): 155 % of control

SMILES: CNc1ccc([N+](=O)[O-])c2no[n+]([O-])c12
- T/C (dose: 15.0 mg/kg/injection, schedule: Q01DX009 (ip), vehicle: saline with Tween-80): 90 % of control
- T/C (dose: 30.0 mg/kg/injection, schedule: Q01DX009 (ip), vehicle: saline with Tween-80): 93 % of control
- T/C (dose: 60.0 mg/kg/injection, schedule: Q01DX009 (ip), vehicle: saline with Tween-80): 102 % of control

SMILES: O=C(O)CS(=O)(=O)c1ccccc1
- T/C (dose: 25.0 mg/kg/injection, schedule: Q04DX003 (ip), vehicle: saline): 109 % of control
- T/C (dose: 50.0 mg/kg/injection, schedule: Q01DX001 (ip), vehicle: other): 95 % of control
- T/C [2]: 108 % of control
- T/C [3]: 109 % of control
- T/C (dose: 100.0 mg/kg/injection, schedule: Q01DX001 (ip), vehicle: other): 100 % of control
- T/C [4]: 120 % of control
- T/C [5]: 100 % of control
- T/C (dose: 200.0 mg/kg/injection, schedule: Q01DX009 (ip), vehicle: saline): 108 % of control

SMILES: C=CCCc1cc(C(=O)N(c2ccccc2)C(C(=O)O)c2ccccc2)ccc1OC (stereo unspecified)
- T/C (dose: 100.0 mg/kg/injection, schedule: Q04DX002 (ip), vehicle: saline with Tween-80): 101 % of control
- T/C (dose: 200.0 mg/kg/injection, schedule: Q04DX002 (ip), vehicle: saline with Tween-80): 100 % of control
- T/C (dose: 400.0 mg/kg/injection, schedule: Q04DX002 (ip), vehicle: saline with Tween-80): 108 % of control

SMILES: CCOC(=O)c1cnc(C)[nH]c1=O
- T/C (dose: 25.0 mg/kg/injection, schedule: Q01DX009 (ip), vehicle: saline): 113 % of control
- T/C [2]: 118 % of control
- T/C [3]: 100 % of control
- T/C [4]: 100 % of control
- T/C [5]: 104 % of control
- T/C (dose: 200.0 mg/kg/injection, schedule: Q04DX003 (ip), vehicle: saline): 86 % of control

SMILES: O=C(NC(=O)c1c(F)cccc1F)Nc1cccc(C(F)(F)F)c1
- T/C [6]: 97 % of control
- T/C [7]: 99 % of control
- T/C [8]: 97 % of control

SMILES: NC(Cc1cccc(NP(=S)(N2CC2)N2CC2)c1)C(=O)O (stereo unspecified)
- T/C (dose: 22.0 mg/kg/injection, schedule: Q04DX003 (ip), vehicle: saline): 120 % of control
- T/C (dose: 35.0 mg/kg/injection, schedule: Q04DX003 (ip), vehicle: saline): 112 % of control
- T/C [3]: 150 % of control
- T/C (dose: 115.0 mg/kg/injection, schedule: Q04DX003 (ip), vehicle: saline): 172 % of control
- T/C (dose: 175.0 mg/kg/injection, schedule: Q04DX003 (ip), vehicle: saline): 268 % of control
- T/C (dose: 264.0 mg/kg/injection, schedule: Q04DX003 (ip), vehicle: saline): 272 % of control
- T/C [9]: 272 % of control
- T/C [10]: 86 % of control

SMILES: C=Cc1ccccc1-c1ccccc1C(=O)OC
- T/C [11]: 87 % of control
- T/C [12]: 105 % of control

SMILES: CC(=O)OCC1OC(n2ccc(N)nc2=O)C(OC(C)=O)C1OC(C)=O (stereo unspecified)
- T/C [7]: 170 % of control
- T/C [8]: 188 % of control
- T/C (dose: 177.0 mg/kg/injection, schedule: Q04DX003 (ip), vehicle: saline): 177 % of control
- T/C [13]: 106 % of control
- T/C (dose: 266.0 mg/kg/injection, schedule: Q04DX003 (ip), vehicle: saline): 181 % of control and 195 % of control
- T/C [9]: 187 % of control and 204 % of control
- T/C [10]: 263 % of control and 200 % of control

SMILES: Cc1ccc([N+](=O)[O-])cc1NC(=O)SCCOC(=O)COc1ccc(Cl)cc1Cl
- T/C [14]: 86 % of control
- T/C [11]: 100 % of control
- T/C [12]: 90 % of control

SMILES: N#CC(O)c1ccccc1 (stereo unspecified)
- T/C (dose: 2.5 mg/kg/injection, schedule: Q01DX010 (ip), vehicle: acetone): 107 % of control
- T/C (dose: 5.0 mg/kg/injection, schedule: Q01DX010 (ip), vehicle: acetone): 92 % of control
- T/C (dose: 10.0 mg/kg/injection, schedule: Q01DX010 (ip), vehicle: acetone): 92 % of control

SMILES: O=[N+]([O-])c1ccc(N=Nc2c(O)ccc3ccccc23)cc1
- T/C [6]: 109 % of control
- T/C [7]: 100 % of control
- T/C [15]: 111 % of control
- T/C [8]: 96 % of control
- T/C [14]: 120 % of control
- T/C [13]: 105 % of control
- T/C [11]: 110 % of control
- T/C [16]: 106 % of control
- T/C [12]: 105 % of control

SMILES: COc1ccc(/C=N/n2c(C)cc(C)c(C#N)c2=O)c(OC)c1OC
- T/C [8]: 100 % of control
- T/C [17]: 115 % of control
- T/C [13]: 86 % of control
- T/C [1]: 100 % of control
- T/C [16]: 113 % of control
- T/C [18]: 100 % of control

SMILES: CN(N=O)C(=O)NC(N)=O
- T/C (dose: 1.5 mg/kg/injection, schedule: Q01DX009 (ip), vehicle: saline): 99 % of control
- T/C (dose: 2.3 mg/kg/injection, schedule: Q01DX009 (ip), vehicle: saline): 115 % of control
- T/C (dose: 5.4 mg/kg/injection, schedule: Q01DX009 (ip), vehicle: saline): 152 % of control
- T/C (dose: 11.0 mg/kg/injection, schedule: Q01DX009 (ip), vehicle: Klucel (hydroxypropylcellulose) (HPC)): 161 % of control
- T/C (dose: 12.0 mg/kg/injection, schedule: Q04DX003 (ip), vehicle: Klucel (hydroxypropylcellulose) (HPC)): 118 % of control
- T/C (dose: 12.5 mg/kg/injection, schedule: Q01DX009 (ip), vehicle: Klucel (hydroxypropylcellulose) (HPC)): 155 % of control
- T/C (dose: 12.5 mg/kg/injection, schedule: Q01DX009 (ip), vehicle: saline): 165 % of control and 174 % of control
- T/C (dose: 16.0 mg/kg/injection, schedule: Q01DX009 (ip), vehicle: Klucel (hydroxypropylcellulose) (HPC)): 186 % of control
- T/C (dose: 16.5 mg/kg/injection, schedule: Q01DX009 (ip), vehicle: Klucel (hydroxypropylcellulose) (HPC)): 250 % of control and 161 % of control
- T/C (dose: 18.0 mg/kg/injection, schedule: Q01DX009 (ip), vehicle: saline): 170 % of control
- T/C (dose: 22.0 mg/kg/injection, schedule: Q04DX003 (ip), vehicle: Klucel (hydroxypropylcellulose) (HPC)): 122 % of control
- T/C (dose: 25.0 mg/kg/injection, schedule: Q01DX009 (ip), vehicle: Klucel (hydroxypropylcellulose) (HPC)): 159 % of control and 207 % of control
- T/C (dose: 37.5 mg/kg/injection, schedule: Q01DX009 (ip), vehicle: Klucel (hydroxypropylcellulose) (HPC)): 100 % of control and 105 % of control
- T/C [2]: 105 % of control
- T/C (dose: 50.0 mg/kg/injection, schedule: Q04DX003 (ip), vehicle: Klucel (hydroxypropylcellulose) (HPC)): 200 % of control
- T/C (dose: 75.0 mg/kg/injection, schedule: Q04DX003 (ip), vehicle: Klucel (hydroxypropylcellulose) (HPC)): 122 % of control

SMILES: CCCC(C(=O)c1ccc(OC)cc1)C(O)(C(F)(F)F)C(F)(F)F (stereo unspecified)
- T/C [17]: 95 % of control
- T/C [1]: 100 % of control
- T/C [18]: 100 % of control

SMILES: CC(Cc1ccccc1)CC(C(=O)O)C(=O)O (stereo unspecified)
- T/C [14]: 100 % of control
- T/C [11]: 99 % of control

SMILES: CCC1C/C(=C\NC(N)=O)C(=O)O1 (stereo unspecified)
- T/C (dose: 6.25 mg/kg/injection, schedule: Q04DX003 (ip), vehicle: saline with Tween-80): 96 % of control
- T/C (dose: 12.5 mg/kg/injection, schedule: Q04DX003 (ip), vehicle: saline with Tween-80): 111 % of control
- T/C [19]: 104 % of control
- T/C [15]: 104 % of control
- T/C [12]: 86 % of control

SMILES: [Cl][Ni][Cl].[NH-]CCN1CC1.[NH-]CCN1CC1
- T/C (dose: 6.25 mg/kg/injection, schedule: Q01DX001 (ip), vehicle: saline): 100 % of control
- T/C (dose: 12.5 mg/kg/injection, schedule: Q01DX001 (ip), vehicle: saline): 100 % of control
- T/C (dose: 25.0 mg/kg/injection, schedule: Q01DX001 (ip), vehicle: saline): 100 % of control

SMILES: O=C1CC(N2C(=O)c3ccccc3C2=O)C(=O)N1 (stereo unspecified)
- T/C [19]: 101 % of control
- T/C [15]: 103 % of control
- T/C [14]: 103 % of control
- T/C [11]: 99 % of control

SMILES: CC(C)N(CC#N)C(C)C
- T/C (dose: 0.25 mg/kg/injection, schedule: Q04DX003 (ip), vehicle: saline with Tween-80): 91 % of control
- T/C (dose: 0.5 mg/kg/injection, schedule: Q04DX003 (ip), vehicle: saline with Tween-80): 101 % of control
